Source: US7998965B2, “Glutamate aggrecanase inhibitors” (Wyeth LLC, priority 2005, dated 2011)

Experiments:
[1] = system: bovine articular cartilage treated with Interleukin 1 alpha (IL-1α); assay: Bovine articular cartilage explant cultures: inhibition of degradation of proteoglycan; format: cell-based; settings: inhibitory effect expressed as percentage, concentration not printed
In short: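 Bovine metacarpal cartilage discs (6 mm), equilibrated in serum-free DMEM-based medium, were treated with 5 ng/ml IL-1 plus compound (working solutions 0.1-10 μg/ml), with medium collected and replaced on days 1, 2 and 3. Released proteoglycan was measured by DMMB absorbance at 520 nm against chondroitin sulphate standards, expressed as μg per mg cartilage, and inhibition given as percentage.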

[2] = molecular target: T1, recombinant human catalytic domain of MMP-14 (Homo sapiens, UniProt P50281); assay: In vitro fluorescence assay of MMP-14 activity; format: biochemical; settings: Table 1; unit inferred
T1 construct: 177 amino acids corresponding to Tyr89-Gly265 of mature human enzyme; purchased Chemicon International, Inc. CC1041

[3] = system: newly synthesized aggrecan in human OA articular cartilage; assay: Cartilage aggrecan metabolism study in human OA cartilage explants; format: cell-based; settings: cartilage from 3 human OA donors, 35SO4 label
Description: Human OA Cartilage Explant Culture: Discarded tissues from consented knee replacement patients were obtained from New England Baptist Hospital (Brookline, Mass.) in sterile phosphate buffered saline (PBS) after about 2-4 hrs post surgery. Cartilage slices were harvested from the knee specimens and washed several times in PBS. These cartilage slices were cut into appropriate pieces (6-8 mm) and rinsed in PBS and then in media and further cultured for additional days as cartilage explants. The medium consisted of Dulbecco's Modified Eagle's medium (DMEM, JRH Biosciences, Lenexa, Kans.), 50 μg/ml ascorbic acid (Wako, Osaka, Japan), 10 mM HEPES, pH 7.0 (Mediatech, Herndon, Va.), 2 mM L-glutamine (Mediatech), 100 U/ml antibiotic-antimycotic solution (Mediatech).
Cartilage aggrecan metabolism study: Cartilage metabolism study was performed with test compound 8OO. Cartilage explants immediately after harvest were cultured in the presence or absence of test compound 8OO. On day 3, media was collected and replaced with media, test compound and labeled sulfate (^35SO4,5 mCi, Perkin Elmer, Boston, Mass.). On day 6, media was collected, explants washed and replaced with media and test compound 8OO. […] Labeled aggrecan molecules were counted using Opti-Fluor (Perkin Elmer) and a liquid scintillation-measuring instrument (Beckman Coulter, Fullerton, Calif.). […]

[4] = molecular target: T2, purified recombinant human Aggrecanase-2 (Ag2t-Phe628-Strep) (Homo sapiens, UniProt Q9UNA0); assay: In vitro fluorescence screen for Aggrecanase-2 inhibitors; format: biochemical; settings: Table 1; read-out: Agg 2 IC50
T2 construct: the form used is denoted as Ag2t-Phe628-Strep (MW=41,737)
T2 sequence (Q9UNA0 262-628): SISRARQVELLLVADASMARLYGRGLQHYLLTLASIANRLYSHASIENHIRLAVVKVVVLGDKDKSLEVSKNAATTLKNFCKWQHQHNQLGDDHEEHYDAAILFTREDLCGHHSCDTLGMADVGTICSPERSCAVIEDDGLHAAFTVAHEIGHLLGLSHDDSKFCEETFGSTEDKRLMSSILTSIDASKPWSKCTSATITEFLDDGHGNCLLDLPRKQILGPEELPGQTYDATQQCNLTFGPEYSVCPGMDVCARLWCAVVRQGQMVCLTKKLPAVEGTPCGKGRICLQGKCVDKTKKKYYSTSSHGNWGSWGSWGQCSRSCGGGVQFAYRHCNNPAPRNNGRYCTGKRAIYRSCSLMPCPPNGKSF

[5] = molecular target: T3, recombinant human MMP-2 (Homo sapiens, UniProt P08253); assay: In vitro fluorescence assay of MMP-2 activity
T3 sequence (P08253 110-660): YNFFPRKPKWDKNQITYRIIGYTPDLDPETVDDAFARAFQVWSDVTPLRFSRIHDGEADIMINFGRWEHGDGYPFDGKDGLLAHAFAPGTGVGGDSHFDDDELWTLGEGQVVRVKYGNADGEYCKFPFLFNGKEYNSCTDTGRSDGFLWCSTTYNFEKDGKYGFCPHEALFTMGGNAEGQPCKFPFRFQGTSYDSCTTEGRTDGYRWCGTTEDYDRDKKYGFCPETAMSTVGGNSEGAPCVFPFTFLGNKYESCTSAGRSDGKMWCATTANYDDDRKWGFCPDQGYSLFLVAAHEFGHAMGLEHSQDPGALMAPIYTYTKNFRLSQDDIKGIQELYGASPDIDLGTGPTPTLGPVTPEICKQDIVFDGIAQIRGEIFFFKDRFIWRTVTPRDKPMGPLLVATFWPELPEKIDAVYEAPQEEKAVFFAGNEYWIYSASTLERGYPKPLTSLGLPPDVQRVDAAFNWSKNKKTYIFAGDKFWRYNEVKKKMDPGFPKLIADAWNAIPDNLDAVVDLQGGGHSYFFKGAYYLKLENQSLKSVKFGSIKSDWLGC

IC50 [2]: > 200 µM
IC50 [4]: 0.044 µM
IC50 [5]: > 20 µM
SMILES: CC(C)(Cc1ccc(F)cc1)NC(=O)[C@H](CCC(=O)O)NC(=O)c1ccc(-c2ccccc2)cc1 [Example 8OO, N^2-(1,1′-biphenyl-4-ylcarbonyl)-N^1-[2-(4-fluorophenyl)-1,1-dimethylethyl]-L-α-glutamine]
bovine ([1]; Table 1, first of two columns headed bovine): 87%
bovine ([1]; Table 1, second of two columns headed bovine): 40%
aggrecan released into the medium [3]: equivalent decrease
newly synthesized aggrecan content of the cartilage matrix [3]: dose dependent increase
